Tests used:
Format in all cases: physicochemical
[1] = Solubility in DMSO and water
[2] = Drug uptake (loading) onto or into SMP foam from drug/PVA solutions
Protocol: An embodiment includes a method for creating a drug-eluting SMP foam. The method includes incubating the foam in a 0.017 mg/mL acriflavine solution (e.g., 1 mg/mL in acriflavine solution dimethyl sulfoxide (DMSO)) that is mixed with varying PVA solutions of 0%, 1%, 2%, 3%, 10% (wt./vol) overnight on a rotator at room temperature (n=3). Different PVA concentrations may be used to increase drug viscosity and drug uptake onto or into the foam. In other embodiments PVA is held constant and acriflavine concentrations are varied (which changes the PVA viscosity). Foams may then be removed from the respective drug/PVA solutions and dried in a vacuum chamber for 5 days. The foams may then be incubated in 0.4 mL phosphate-buffered saline (PBS) at 37° C. Supernatants may be removed at various time points and measured for fluorescence at 416/514 nm (Ex/Em). In an embodiment acriflavine is used as a cargo in the free drug form (which helps illustrate the release profile for drug solutions with different PVA concentrations). […] This may be due, at least in part, to the increased viscosity of the drug when combined with PVA, which enables the drug to be trapped within or on the pores present in the foam. […]

[3] = In vitro release of acriflavine from SMP foams into PBS at 37° C., fluorescence of supernatants
Protocol: An embodiment includes a method for creating a drug-eluting SMP foam. The method includes incubating the foam in a 0.017 mg/mL acriflavine solution (e.g., 1 mg/mL in acriflavine solution dimethyl sulfoxide (DMSO)) that is mixed with varying PVA solutions of 0%, 1%, 2%, 3%, 10% (wt./vol) overnight on a rotator at room temperature (n=3). Different PVA concentrations may be used to increase drug viscosity and drug uptake onto or into the foam. In other embodiments PVA is held constant and acriflavine concentrations are varied (which changes the PVA viscosity). Foams may then be removed from the respective drug/PVA solutions and dried in a vacuum chamber for 5 days. The foams may then be incubated in 0.4 mL phosphate-buffered saline (PBS) at 37° C. Supernatants may be removed at various time points and measured for fluorescence at 416/514 nm (Ex/Em). Regarding in vitro release of acriflavine from HDI-based SMP foams, see FIG. 1. […] This may be because of the increased loading of acriflavine that is due to PVA (and PVA's affinity for the foam). […] In vitro release of acriflavine from non-reticulated TMHDI 60 foam is addressed in FIG. 3.

| Compound | solubility [1] | drug uptake onto or into the foam ([2]; drug solution without PVA (0% PVA), compared to solutions with increasing PVA concentration) | drug uptake onto or into the foam ([2]; increasing PVA concentrations, FIGS. 1, 2, 3) | acriflavine release from SMP foams (non-cumulative release curve) ([3]; HDI-based SMP foams, FIG. 1, increasing PVA concentration) | release profile ([3]; drug solution with 0% PVA) | acriflavine release from SMP foams (non-cumulative release curve) ([3]; non-reticulated TMHDI 60 (TH60) SMP foams, FIG. 3, increasing PVA concentration) | acriflavine release from SMP foams (non-cumulative release curve) ([3]; reticulated HH80 SMP foams, FIG. 2, increasing PVA concentration) | release profile ([3]; solutions with higher PVA concentrations) |
| --- | --- | --- | --- | --- | --- | --- | --- | --- |
| COc1cccc2c1C(=O)c1c(O)c3c(c(O)c1C2=O)C[C@@](O)(C(=O)CO)C[C@@H]3O[C@H]1C[C@H](N)[C@H](O)[C@H](C)O1 [Doxorubicin] | soluble in both DMSO and water |  |  |  |  |  |  |  |
| Acriflavine | soluble in both DMSO and water | less drug uptake | increased drug uptake | increases (or at least differs) with increasing PVA concentration | delayed burst release | increased (or at least differs) with increasing PVA concentration | increased (or at least differs) with increasing PVA concentration | immediate release |
